{"source": "patent US6605305B2", "about": "“Plant drug for treatment of liver disease” (priority 2001, dated 2003)", "key": {"Gastric cancer cells": {"system": "Gastric cancer cells", "assay": "Effect of SCS on p^53 mutations of cancer cells (PCR-SSCP)", "format": "cell-based", "conditions": "Gastric cancer cells treated by SCS"}, "c-myb RNA": {"system": "c-myb RNA", "assay": "Inhibition of oncogene expression in ML-1 cells (northern blot), c-myb", "format": "cell-based, Human", "procedure": "(§1) Human myeloblastic leukemic cells (ML-1) were maintained in suspension culture in RPMI 1640 medium supplemented with 7.5% heat-inactivated FBS. Cells growth and viability were assayed by hemocytometer using trypan-blue dye exclusion.\n(§2) RNA was isolated by the CsCl gradient modification. RNA pellets were washed twice by reprecipitation in ethanol and quantitated by absorbency at […]. RNA analyzed by electrophoresis of 15 μg of RNA through 1.2% agarose formaldehyde gels followed by northern blot transfer to nitrocellulose.\n(§3) Single-standard uniformly labeled DNA probes were prepared. Probe of c-myc was a 1.7 Kb cla-Eco RI restriction fragment containing the 3′exon region of human c-myc and probe of c-myb was 1.0 Kb myb-specific Bam HI fragment. Probes for n-ras contained DNA fragments using a modification of the PCR technique. Probes for myb, myc and n-ras were isolated. The isolated fragments were labeled to high specific activity with [α^32P]-dCTP (3000 ci/mmol).\n(§4) Prehybridization of the filter was performed. The hybridization mixer contained 50,000 cpm of probe. The probes were hybridized at 58° C. in 15 mM NaCl, […] sodium citrate for 3 hours. After hybridization, they were exposed to XAR-5 film. Oncogene expression was quantitated by densitometer scanning of the autoradiography."}, "c-myc RNA": {"system": "c-myc RNA", "assay": "Inhibition of oncogene expression in ML-1 cells (northern blot), c-myc", "format": "cell-based, Human", "procedure": "as §1, §2, §3, §4"}, "DNA synthesis of liver": {"system": "DNA synthesis of liver", "assay": "Liver DNA synthesis ([^3H] thymidine incorporation) in CCl4-intoxicated mice", "format": "in vivo", "conditions": "SCS 50 mg/kg intragastrically daily for 4 days", "procedure": "(§5) Female Balb/c mice (22-24 g) were maintained at 20° C. and a 12 hours light/dark cycle. The food and water allowed adliboti. Mice were randomly assigned to groups of 20 individuals. Twenty-four hours after the last dosing, animals were administered an oral dose of CCl4 (1%, v/v, in olive oil) at 1.0 mmol/kg. In treatment group, mice were treated intragastrically with SCS at daily dose of 50 mg/kg for 4 days. Control animals were given the vehicle (i.e. olive oil, 1 mL/kg). Twenty-four hours after intoxication, heparinized blood samples were drawn from ether-anesthetized mice by cardiac puncture, and the animals were killed by cardiac excision thereafter.\n[^3H] thymidine (10 μCi/100 g body weight) was injected intraperitoneally and mice were killed 2 hours after the infection. Mice were killed at 12, 24, 36, 48, 72 and 120 hours and their livers were removed.\nDNA synthesis was determined by the incorporation of [^3H] thymidice into the acid-insoluble fraction. The liver was homogenized in 4 volumes of distilled water. Two ml of homogenate were added to an equal volume of 10% trichloroacetic acid (TCA) solution and centrifuged at 900 g for 10 minutes. The resultant pellet was washed with 5% TCA twice and suspended again in 2 ml of 5% TCA solution. The suspension was incubated at 90° C. for 20 minutes and centrifuged at 900 g for 10 minutes. One ml of the supernatant was put into a scintillation vial and 10 ml of a toluene-based scintillation fluid containing DPO (0.4%), POPOP (0.01%), and Triton X-100 (30%) as added. The radioactivity was counted in a Packard Tri-Carb Liquid scintillation counter. The DNA content of the supernatant was assayed by the method of using calf thymus DNA as the standard."}, "[1]": {"system": "Serum alamine aminotransferase (ALT)", "assay": "Serum ALT activity in CCl4-intoxicated mice", "format": "in vivo", "procedure": "as §5\nAnimal section described as previously. Plasma was obtained by centrifugation. The whole blood at 2000×g at 4° C. Serum alamine aminotransferase (ALT) activity was determined by assay kit from Sigma Chemical Co."}, "[2]": {"system": "Glutathione S-trasferase (GST)", "assay": "Liver GST activity in CCl4-intoxicated mice", "format": "in vivo", "procedure": "as §5\n(§6) The rats were starved overnight before decapitation. The livers were perfused in situ with ice-cold 1.15% KCl solution. Tissue homogenate was prepared by homogenizing 1 g of hepatic tissue sample in 10 mL ice-cold homogenizing buffer with two 10-secbursts of atissue disintegrator at 135,000 rpm. Hepatic mitochondrial fraction was prepared by differential centrifugation in isotonic buffer ([…], 0.1 mM EDTA, 5 mM Tris, pH 7.4).\nGlutathione S-trasferase (GST) was determined. Total GST activity in the 105000 g supernatants of the liver homogenate was measured in 100 mM postassium-phosphate buffer (pH 6.5) containing 1 mM glutathione and 1 mM 1-chloro-2, 4-dinitrobenzene."}, "Glutathione (GSH)": {"system": "Glutathione (GSH)", "assay": "Hepatic mitochondrial GSH level in CCl4-treated mice", "format": "in vivo", "conditions": "CCl4 + SCS", "procedure": "as §5, §6\n(§7) The experiments of animal and livers were performed as previously described. Glutathione (GSH) level was determined by an HPLC method. In the present study, the effect of SCS on GHS and GRD were examined."}, "GRD": {"system": "GRD", "assay": "Hepatic GRD activity in CCl4-treated mice", "format": "in vivo", "procedure": "as §5, §6, §7"}, "Lipoperoxides": {"system": "Lipoperoxides", "assay": "Liver lipoperoxides (MDA) after CCl4", "format": "in vivo, mice", "procedure": "as §5, with “Twenty-four hours after intoxication, heparinized blood samples were drawn from ether-anesthetized mice by cardiac puncture, and the animals were killed by cardiac excision thereafter.” left out\nThe experiments were performed as previously described.\nIn the present study, the effect of SCS on lipoperoxides was examined."}, "[3]": {"system": "NADPH-cytochrome Creductase", "assay": "Hepatic microsomal monooxygenases: NADPH-cytochrome C reductase", "format": "in vivo", "conditions": "rat liver microsomes, treatment group"}, "Aminopyrine demethylase": {"system": "Aminopyrine demethylase", "assay": "Hepatic microsomal monooxygenases: aminopyrine demethylase", "format": "in vivo", "conditions": "rat liver microsomes, treatment group"}, "Benzpyrene hydroxylase": {"system": "Benzpyrene hydroxylase", "assay": "Hepatic microsomal monooxygenases: benzpyrene hydroxylase", "format": "in vivo", "conditions": "rat liver microsomes, treatment group"}, "[4]": {"system": "mitochondrion oxygen consumption", "assay": "Mitochondrion oxygen consumption (respiratory control ratio) with TET", "format": "biochemical", "conditions": "TET 5 μl/L + SCS (100 μmol/L)", "procedure": "In present study, the effect of SCS on ATP and oxygen consumption was examined. The experiments of animal and livers were performed as previously described."}}, "data": [{"molecule": "COc1cc2c(c(OC)c1OC)-c1c(cc(OC)c(OC)c1OC)C[C@](C)(O)[C@@H](C)C2", "note": "[SCS, Schisandrin]", "values": [{"measurement": "Frequency of p^53 mutations (%)", "setting": "Gastric cancer cells", "result": 10, "unit": "%"}, {"measurement": "Inhibition (%) c-myb RNA", "setting": "c-myb RNA; SCS concentration 10 ng/ml", "result": "65.0 ± 5.7", "unit": "%"}, {"measurement": "Inhibition (%) c-myb RNA", "setting": "c-myb RNA; SCS concentration 50 ng/ml", "result": "67.7 ± 6.8", "unit": "%"}, {"measurement": "Inhibition (%) c-myc RNA", "setting": "c-myc RNA; SCS concentration 10 ng/ml", "result": "70.5 ± 8.5", "unit": "%"}, {"measurement": "Inhibition (%) c-myc RNA", "setting": "c-myc RNA; SCS concentration 50 ng/ml", "result": "70.8 ± 8.9", "unit": "%"}, {"measurement": "DNA synthesis (cpm/mg DNA)", "setting": "DNA synthesis of liver; 12 h", "result": "6520 ± 678", "unit": "cpm/mg DNA"}, {"measurement": "DNA synthesis (cpm/mg DNA)", "setting": "DNA synthesis of liver; 24 h", "result": "12305 ± 1405", "unit": "cpm/mg DNA"}, {"measurement": "DNA synthesis (cpm/mg DNA)", "setting": "DNA synthesis of liver; 48 h", "result": "8910 ± 920", "unit": "cpm/mg DNA"}, {"measurement": "DNA synthesis (cpm/mg DNA)", "setting": "DNA synthesis of liver; 72 h", "result": "9300 ± 940", "unit": "cpm/mg DNA"}, {"measurement": "ALT (X ± S)", "setting": "[1]; CCl4 + SCS, serum, mice, SCS 50 mg/kg intragastrically daily for 4 days", "result": "68.8 ± 7.0", "unit": "U L^−1"}, {"measurement": "CCl4 toxicity decreased by SCS (ALT)", "setting": "[1]; CCl4 mice, versus control", "result": 87.9, "unit": "%"}, {"measurement": "GST activity", "setting": "[2]; CCl4 + SCS, liver homogenate supernatant", "result": "2.60 ± 0.28", "unit": "μmol/mg protein"}, {"measurement": "Inhibition of GST activity", "setting": "[2]; versus CCl4 control", "result": 55.5, "unit": "%"}, {"measurement": "GSH", "setting": "Glutathione (GSH)", "result": "21.8 ± 2.0", "unit": "nmol/mg protein"}, {"measurement": "GRD", "setting": "GRD; CCl4 + SCS", "result": "50.6 ± 6.0", "unit": "mU/mg protein"}, {"measurement": "GRD activity T/C", "setting": "GRD; treatment versus CCl4 control", "result": 347, "unit": "%"}, {"measurement": "GRD activity T/N", "setting": "GRD; treatment versus normal group", "result": 145, "unit": "%"}, {"measurement": "Lipoperoxides (mmol MDA/g liver protein)", "setting": "Lipoperoxides; 1 h", "result": "0.70 ± 0.07", "unit": "mmol MDA/g liver protein"}, {"measurement": "Lipoperoxides T/C", "setting": "Lipoperoxides; 1 h", "result": 87, "unit": "%"}, {"measurement": "Lipoperoxides (mmol MDA/g liver protein)", "setting": "Lipoperoxides; 3 h", "result": "0.65 ± 0.069", "unit": "mmol MDA/g liver protein"}, {"measurement": "Lipoperoxides T/C", "setting": "Lipoperoxides; 3 h", "result": 72, "unit": "%"}, {"measurement": "Lipoperoxides (mmol MDA/g liver protein)", "setting": "Lipoperoxides; 6 h", "result": "0.60 ± 0.70", "unit": "mmol MDA/g liver protein"}, {"measurement": "Lipoperoxides T/C", "setting": "Lipoperoxides; 6 h", "result": 55, "unit": "%"}, {"measurement": "Lipoperoxides (mmol MDA/g liver protein)", "setting": "Lipoperoxides; 12 h", "result": "0.52 ± 0.60", "unit": "mmol MDA/g liver protein"}, {"measurement": "Lipoperoxides T/C", "setting": "Lipoperoxides; 12 h", "result": 40, "unit": "%"}, {"measurement": "Lipoperoxides (mmol MDA/g liver protein)", "setting": "Lipoperoxides; 24 h", "result": "0.50 ± 0.58", "unit": "mmol MDA/g liver protein"}, {"measurement": "Lipoperoxides T/C", "setting": "Lipoperoxides; 24 h", "result": 22, "unit": "%"}, {"measurement": "NADPH-cytochrome Creductase", "setting": "[3]", "result": "202.5 ± 22", "unit": "nmol/mg protein"}, {"measurement": "Aminopyrine demethylase", "setting": "Aminopyrine demethylase", "result": "180.0 ± 20", "unit": "nmol HCHO/mg protein"}, {"measurement": "Benzpyrene hydroxylase", "setting": "Benzpyrene hydroxylase", "result": "51.8 ± 6.5", "unit": "nmol/mg protein"}, {"measurement": "RCR (respiratory control ratio)", "setting": "[4]", "result": "12.5 ± 1.10"}]}]}
